Laboratory results published in article PMC10492782, “Exploiting the aggregation propensity of beta-lactamases to design inhibitors that induce enzyme misfolding” (Nature Communications, 2023).

How the values were obtained:
[1] = tested on: HeLa cells; assay: CellTiter Blue cell viability; settings: 24 h, 37 °C, DMEM without serum
Protocol: Fig. 7 Evaluation of in vivo use of peptides that induce the aggregation of TEM beta-lactamase. A Lysis of human erythrocytes (hemolysis) was assessed in the presence of the indicated concentrations of TEM3.2 for 2 h at 37 °C, and normalized to the value obtained with 1% of the detergent triton. […] B Cell viability using the CellTiter Blue assay of HeLa cells treated for 24 h with the indicated concentrations TEM 3.2 at 37 °C. […] DAPI (4’,6-diamidino-2-phenylindole) is blue, while CellMask is red. D Experimental workflow of the in vivo model used in this study. E–G Bacterial load of indicated organs of female C57BL/6JAX mice with a urinary tract infection with E. coli strain UZ_TEM104, treated with 30 mg/kg penicillin (oral) as well 10 mg/kg tazobactam (oral) or 10 mg/kg TEM3.2 via the indicated treatment route. IV intravenous, IP intraperitoneal, SC subcutaneously. The data shown is from a single experiment with 12 animals for each group. The result for each animal is shown as a dot. […] The statistically significant differences were determined using ANOVA, followed by Dunnett’s multiple comparison test. […]
The Cell Titer Blue assay was performed to evaluate the cell viability according to the instructions of the manufacturer (Promega, USA). […] The fluorescence was measured at 590 nm by exciting at 560 nm with a ClarioStar plate reader (BMG Labtech, Germany).

[2] = tested on: uro-pathogenic E. coli strain (UPEC strain blaTEM-1); assay: MIC of ampicillin with or without 32 µg/mL TEM3.2 or tazobactam; assay type: cell-based, Escherichia coli; settings: 32 μg/mL of either TEM3.2 or tazobactam
Protocol: We also performed a tolerability study using a dose escalation method by administering the peptide at 2, 5, 10, 15, and 20 mg/kg via different parenteral routes: intravenous (IV), intraperitoneal (IP), and subcutaneous (SC) in female C57BL/6JAX mice, aged 8–10 weeks (Suppl Table 4). […] Vehicle alone (0.9% NaCl) was also administered (IV). After 24 h the animals were sacrificed and the bacterial load in the bladder, kidney, and ureter was quantified by determining the number of colony-forming units (CFU) per mL of tissue extract (Fig. 7E–G).
Determination of MIC values was performed using the broth microdilution method according to the EUCAST guideline, which was performed in 96-well polystyrene flat-bottom microtiter plates (BD Biosciences). Briefly, a single colony was inoculated into 5 mL Difco™ Mueller–Hinton Broth (BD Biosciences Ref 275730) and grown to the end-exponential growth phase in a shaking incubator at 37 °C. Cultures were subsequently diluted to a MacFarland (0.5 optical density) to reach 10^6 CFU/mL in fresh MHB medium. 50 µl of different concentrations of peptides ranging from 128 to 2 µg/mL were serially diluted to the sterile 96-well plate in MHB. 50 µL of the diluted bacteria in MHB were next pipetted into 96-well plates to reach the final volume of 100 µL. The bacteria grown with the maximum concentration of carrier and medium were considered positive and negative controls, respectively. The plates were statically incubated overnight at 37 °C to allow bacterial growth. OD was measured at 590 nm using a multipurpose ultraviolet–visible plate reader, and the absorbance of the bacterial growth was measured using an absorbance reader.

## Ac-RLTAFLHNRRPRLTAFLRQRR-NH2 [TEM3.2]
[1]
  cytotoxicity, Cell Titer Blue (in words): not cytotoxic
[2]
  MIC Ampicillin in the presence of additive: 25 µg/mL
